In one test the target is T1, Flt 1(h) (Homo sapiens, UniProt P17948).
T1 construct: purchased Upstate Biotechnology (Dundee, UK), KinaseProfiler service
Nature of the test: Upstate KinaseProfiler enzyme assay, Flt 1. Type of test: biochemical. The conditions noted are these: 500 nM compound; read-out: Percent inhibition at 500 nM Flt 1(h). The method, boiled down:
(§1)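 Outsourced biochemical kinase assays; enzyme stocks at 10× working concentration in MOPS/EDTA/β-mercaptoethanol/Brij-35/glycerol/BSA buffer, pH 7.0.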

The next test deals with T2, KDR(h) (Homo sapiens, UniProt P35968).
T2 construct: purchased Upstate Biotechnology (Dundee, UK), KinaseProfiler service
T2 sequence (P35968 20-1356): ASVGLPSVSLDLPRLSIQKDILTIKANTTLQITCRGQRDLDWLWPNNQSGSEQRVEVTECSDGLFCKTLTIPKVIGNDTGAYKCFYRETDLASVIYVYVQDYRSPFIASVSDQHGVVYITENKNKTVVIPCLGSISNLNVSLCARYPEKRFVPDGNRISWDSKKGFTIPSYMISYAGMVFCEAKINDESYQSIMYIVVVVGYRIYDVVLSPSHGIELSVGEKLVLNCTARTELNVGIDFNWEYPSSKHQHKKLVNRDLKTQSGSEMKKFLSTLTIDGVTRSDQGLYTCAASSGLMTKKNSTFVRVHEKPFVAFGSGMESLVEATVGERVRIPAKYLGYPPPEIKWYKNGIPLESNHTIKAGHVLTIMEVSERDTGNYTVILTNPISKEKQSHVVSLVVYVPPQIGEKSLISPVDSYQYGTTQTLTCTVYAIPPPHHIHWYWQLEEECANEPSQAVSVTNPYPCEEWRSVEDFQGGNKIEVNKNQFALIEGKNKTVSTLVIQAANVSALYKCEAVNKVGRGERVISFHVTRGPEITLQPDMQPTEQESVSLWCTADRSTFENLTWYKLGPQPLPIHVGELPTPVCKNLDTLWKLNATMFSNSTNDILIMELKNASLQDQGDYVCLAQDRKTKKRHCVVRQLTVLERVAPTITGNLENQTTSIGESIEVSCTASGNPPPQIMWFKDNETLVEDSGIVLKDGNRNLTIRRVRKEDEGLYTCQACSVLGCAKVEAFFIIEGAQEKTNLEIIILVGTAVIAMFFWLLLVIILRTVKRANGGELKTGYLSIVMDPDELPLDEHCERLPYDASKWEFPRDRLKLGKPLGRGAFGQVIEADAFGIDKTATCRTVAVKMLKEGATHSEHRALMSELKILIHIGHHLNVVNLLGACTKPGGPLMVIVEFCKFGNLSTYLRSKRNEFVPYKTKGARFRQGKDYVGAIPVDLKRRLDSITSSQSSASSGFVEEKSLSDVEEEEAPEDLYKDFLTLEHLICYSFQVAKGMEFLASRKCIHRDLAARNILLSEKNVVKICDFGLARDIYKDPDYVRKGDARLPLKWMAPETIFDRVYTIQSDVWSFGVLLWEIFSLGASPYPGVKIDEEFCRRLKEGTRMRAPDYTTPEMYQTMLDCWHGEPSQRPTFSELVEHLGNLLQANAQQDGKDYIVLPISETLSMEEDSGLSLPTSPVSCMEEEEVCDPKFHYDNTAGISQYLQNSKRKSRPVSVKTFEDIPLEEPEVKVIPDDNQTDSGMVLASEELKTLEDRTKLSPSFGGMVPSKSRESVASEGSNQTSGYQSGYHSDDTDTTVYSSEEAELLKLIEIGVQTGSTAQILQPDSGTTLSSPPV
Description: Upstate KinaseProfiler enzyme assay, KDR. The conditions noted are these: 500 nM compound; read-out: Percent inhibition at 500 nM KDR(h). Type of test: biochemical. The method, boiled down: as §1

The test system of a further test is CTLL2. Nature of the test: Cellular screening, CTLL2 cells, Alamar Blue. Type of test: cell-based. The conditions noted are these: Mus musculus, CTLL-2, read-out: CTLL2 IC50_nM. In outline:
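Viability is read with Alamar Blue at 544 nm, the dye added for the final 4-6 hours. Compounds were incubated for 40 hr with CTLL2 cells taken from late-log-phase culture, at 37° C in 5% CO2.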

The target in another test is T3, human JAK1 (Homo sapiens, UniProt P23458).
T3 construct: The kinase domain of human JAK1 was amplified; GST (N); made in house; host or cells: Sf9 insect cells (baculovirus)
T3 sequence (P23458 875-1153 limits assumed): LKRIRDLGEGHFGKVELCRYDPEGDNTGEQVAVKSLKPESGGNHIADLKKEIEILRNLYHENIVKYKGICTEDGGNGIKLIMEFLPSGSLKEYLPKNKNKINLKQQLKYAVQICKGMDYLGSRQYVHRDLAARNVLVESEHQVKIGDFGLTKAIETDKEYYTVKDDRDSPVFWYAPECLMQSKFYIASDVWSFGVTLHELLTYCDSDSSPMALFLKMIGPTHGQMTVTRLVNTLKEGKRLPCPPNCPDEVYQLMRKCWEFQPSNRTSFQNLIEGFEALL
Nature of the test: Alphascreen tyrosine kinase enzyme assay, JAK1 kinase domain. Type of test: biochemical. As to conditions: read-out: JAK1 IC50_nM. A general note: Alpha assays give light when donor and acceptor beads are brought close together.

The subject of another test is BaF3 wild-type cells. Nature of the test: Cellular screening, BaF3 wild-type cells, Alamar Blue. Type of test: cell-based. As to conditions: Mus musculus, 40 hr, read-out: BAF3wt IC50_nM. The method, boiled down:
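Compounds, screened from dilution plates at 20 μM, were added as 10× final stocks to cells grown in DMEM/10% FCS/10% WEHI 3B conditioned medium. Cells were seeded at 1.1× final (50,000–200,000 cells/mL) and incubated 40 hr at 37° C, 5% CO2. Viability was read at 544 nm after a further 4–6 hours with Alamar Blue.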

For another test, the target named is T4, human JAK3 (Homo sapiens, UniProt P52333).
T4 construct: The kinase domain of human JAK3 was amplified; GST (N); made in house; host or cells: Sf9 insect cells (baculovirus)
Description: Alphascreen tyrosine kinase enzyme assay, JAK3 kinase domain. Type of test: biochemical. The conditions noted are these: read-out: JAK3 IC50_nM. The method, boiled down:
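GST-affinity-purified human JAK3 kinase domain (baculovirus/Sf9) was pre-incubated 20 min with compound ([…]) in HEPES pH 7.5 buffer with MgCl2, vanadate and Tween 20. Biotinylated peptide substrate ([…]) and ATP were then added; phosphotyrosine was detected by AlphaScreen PY100 acceptor and streptavidin donor beads after 2–3 h.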

The next test deals with T5, BTK(h) (Homo sapiens, UniProt Q06187).
T5 construct: purchased Upstate Biotechnology (Dundee, UK), KinaseProfiler service
T5 sequence (Q06187 whole entry): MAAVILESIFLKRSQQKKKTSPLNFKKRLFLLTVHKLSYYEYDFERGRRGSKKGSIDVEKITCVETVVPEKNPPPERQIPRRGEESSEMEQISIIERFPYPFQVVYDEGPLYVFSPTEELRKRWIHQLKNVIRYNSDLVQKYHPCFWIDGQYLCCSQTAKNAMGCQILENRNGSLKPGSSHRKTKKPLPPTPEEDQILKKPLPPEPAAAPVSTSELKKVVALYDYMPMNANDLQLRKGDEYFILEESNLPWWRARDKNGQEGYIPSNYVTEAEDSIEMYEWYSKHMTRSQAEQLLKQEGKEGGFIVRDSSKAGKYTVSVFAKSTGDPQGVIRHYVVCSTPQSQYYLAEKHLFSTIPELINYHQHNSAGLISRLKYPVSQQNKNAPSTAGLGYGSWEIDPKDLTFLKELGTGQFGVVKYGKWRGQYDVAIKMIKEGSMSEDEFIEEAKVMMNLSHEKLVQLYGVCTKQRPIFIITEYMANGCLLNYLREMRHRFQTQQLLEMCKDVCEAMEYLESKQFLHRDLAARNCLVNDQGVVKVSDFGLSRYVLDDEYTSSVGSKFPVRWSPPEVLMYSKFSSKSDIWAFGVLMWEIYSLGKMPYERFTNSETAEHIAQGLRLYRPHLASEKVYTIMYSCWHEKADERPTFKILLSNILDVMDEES
Description: Upstate KinaseProfiler enzyme assay, BTK. Type of test: biochemical. As to conditions: 500 nM compound; read-out: Percent inhibition at 500 nM BTK(h). In outline: as §1

A further test deals with T6, Flt 4(h) (Homo sapiens, UniProt P35916).
T6 construct: purchased Upstate Biotechnology (Dundee, UK), KinaseProfiler service
T6 sequence (P35916 25-1363): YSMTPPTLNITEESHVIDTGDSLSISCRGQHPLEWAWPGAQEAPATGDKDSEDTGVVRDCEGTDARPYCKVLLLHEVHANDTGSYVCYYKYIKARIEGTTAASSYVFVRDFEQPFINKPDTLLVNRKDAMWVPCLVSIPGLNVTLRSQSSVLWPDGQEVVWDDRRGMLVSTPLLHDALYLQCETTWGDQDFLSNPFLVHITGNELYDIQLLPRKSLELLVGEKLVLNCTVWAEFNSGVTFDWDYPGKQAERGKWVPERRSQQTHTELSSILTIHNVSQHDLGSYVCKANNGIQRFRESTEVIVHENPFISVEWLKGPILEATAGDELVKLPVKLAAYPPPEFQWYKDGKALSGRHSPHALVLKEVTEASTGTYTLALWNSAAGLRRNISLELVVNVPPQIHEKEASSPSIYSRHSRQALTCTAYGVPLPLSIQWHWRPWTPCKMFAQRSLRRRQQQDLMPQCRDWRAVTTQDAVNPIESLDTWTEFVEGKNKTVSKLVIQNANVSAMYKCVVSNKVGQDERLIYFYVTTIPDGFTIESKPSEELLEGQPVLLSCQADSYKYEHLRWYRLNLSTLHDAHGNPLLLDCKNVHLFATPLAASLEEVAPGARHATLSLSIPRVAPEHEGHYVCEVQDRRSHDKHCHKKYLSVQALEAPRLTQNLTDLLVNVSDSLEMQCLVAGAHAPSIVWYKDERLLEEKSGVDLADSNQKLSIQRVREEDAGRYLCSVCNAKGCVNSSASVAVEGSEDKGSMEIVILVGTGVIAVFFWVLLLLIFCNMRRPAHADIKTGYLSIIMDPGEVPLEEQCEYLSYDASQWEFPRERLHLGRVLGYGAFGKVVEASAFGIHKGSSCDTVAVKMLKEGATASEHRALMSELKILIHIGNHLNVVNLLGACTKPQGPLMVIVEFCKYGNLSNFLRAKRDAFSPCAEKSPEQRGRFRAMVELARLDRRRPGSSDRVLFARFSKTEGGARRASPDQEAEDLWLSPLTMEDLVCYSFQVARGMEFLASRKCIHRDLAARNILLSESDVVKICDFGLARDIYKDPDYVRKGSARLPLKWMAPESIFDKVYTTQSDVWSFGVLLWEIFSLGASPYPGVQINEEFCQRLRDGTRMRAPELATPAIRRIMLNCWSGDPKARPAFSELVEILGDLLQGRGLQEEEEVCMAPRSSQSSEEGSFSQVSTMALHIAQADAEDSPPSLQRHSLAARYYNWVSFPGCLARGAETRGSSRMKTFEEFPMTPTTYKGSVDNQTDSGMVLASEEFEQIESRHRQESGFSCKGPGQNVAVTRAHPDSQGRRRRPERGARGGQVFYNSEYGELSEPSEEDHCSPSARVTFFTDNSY
Nature of the test: Upstate KinaseProfiler enzyme assay, Flt 4. Type of test: biochemical. As to conditions: 500 nM compound; read-out: Percent inhibition at 500 nM Flt 4(h). The method, boiled down: as §1

Our source for the inhibition and IC50 values is patent US8846704B2, “Thiopyrimidine-based compounds and uses thereof” (YM Biosciences Austraila Pty Ltd, priority 2007, dated 2014).

A word on the inhibition: it is the share of the control response that was lost under treatment.

T1 sequence (P17948 27-1338): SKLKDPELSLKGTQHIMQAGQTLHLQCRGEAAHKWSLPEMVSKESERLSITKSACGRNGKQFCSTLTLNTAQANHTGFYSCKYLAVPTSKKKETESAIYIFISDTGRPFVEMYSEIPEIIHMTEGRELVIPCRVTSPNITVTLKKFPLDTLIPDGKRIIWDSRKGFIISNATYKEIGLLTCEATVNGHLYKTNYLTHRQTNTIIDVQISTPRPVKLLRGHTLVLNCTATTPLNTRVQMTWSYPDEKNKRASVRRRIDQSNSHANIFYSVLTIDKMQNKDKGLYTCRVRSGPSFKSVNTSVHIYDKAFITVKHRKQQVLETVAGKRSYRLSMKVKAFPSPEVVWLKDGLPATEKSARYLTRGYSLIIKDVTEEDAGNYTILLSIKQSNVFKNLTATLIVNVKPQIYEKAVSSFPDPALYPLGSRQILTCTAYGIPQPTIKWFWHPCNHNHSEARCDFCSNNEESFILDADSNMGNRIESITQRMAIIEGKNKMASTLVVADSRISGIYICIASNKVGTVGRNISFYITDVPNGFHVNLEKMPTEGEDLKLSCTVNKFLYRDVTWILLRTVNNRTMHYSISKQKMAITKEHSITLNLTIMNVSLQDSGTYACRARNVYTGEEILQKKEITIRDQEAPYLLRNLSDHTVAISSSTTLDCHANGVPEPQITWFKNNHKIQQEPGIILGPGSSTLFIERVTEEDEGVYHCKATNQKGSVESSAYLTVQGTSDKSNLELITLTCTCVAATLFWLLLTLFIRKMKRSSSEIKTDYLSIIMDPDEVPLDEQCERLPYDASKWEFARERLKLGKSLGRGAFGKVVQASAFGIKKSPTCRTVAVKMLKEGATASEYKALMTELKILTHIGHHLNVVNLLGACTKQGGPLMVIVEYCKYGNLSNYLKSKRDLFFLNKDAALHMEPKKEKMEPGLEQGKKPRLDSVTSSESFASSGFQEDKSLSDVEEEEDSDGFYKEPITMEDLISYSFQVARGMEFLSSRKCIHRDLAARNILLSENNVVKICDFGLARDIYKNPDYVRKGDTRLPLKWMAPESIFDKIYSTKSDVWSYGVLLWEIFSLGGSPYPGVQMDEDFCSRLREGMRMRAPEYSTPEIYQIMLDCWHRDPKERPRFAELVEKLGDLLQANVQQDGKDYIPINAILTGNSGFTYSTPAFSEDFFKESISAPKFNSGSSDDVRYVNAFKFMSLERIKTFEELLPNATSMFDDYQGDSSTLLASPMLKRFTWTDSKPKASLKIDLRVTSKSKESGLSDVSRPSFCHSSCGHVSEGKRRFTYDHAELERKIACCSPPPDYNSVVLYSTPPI

For `C=CC(=O)Nc1ccc(Sc2nc(Nc3ccc(OCCN4CCOCC4)cc3)ncc2C)cc1` [Compound 290, N-(4-(5-methyl-2-(4-(2-morpholinoethoxy)phenylao)pyrimidin-4-ylthio)phenyl)acrylamide], the inhibition at 0.5 µM at Flt 1(h) was 100%; on KDR(h) it was 95%; at BTK(h), 94%; on Flt 4(h), 100%. Besides, the IC50 with CTLL2 was below 1 µM; on human JAK1, above 1 µM; with BaF3 wild-type cells, below 5 µM; on human JAK3, below 0.1 µM.

Consider `C=CC(=O)Nc1ccc(Sc2nc(Nc3ccc(OCCCN(CC)CC)cc3)ncc2C)cc1` [Compound 291, N-(4-(2-(4-(3-(diethylao)propoxy)phenylao)-5-methylpyrimidin-4-ylthio)phenyl)acrylamide], for which the inhibition at 0.5 µM is 100% on Flt 1(h), 96% on KDR(h), 95% on BTK(h) and 100% at Flt 4(h). Besides, the IC50 in the test with CTLL2 was below 1 µM; at human JAK1, above 1 µM; in the test with BaF3 wild-type cells, below 5 µM; at human JAK3, below 0.1 µM.

With `C=CC(=O)Nc1ccc(Sc2nc(Nc3ccc(OC)c(NS(C)(=O)=O)c3)ncc2C)cc1` [Compound 293, N-(4-(2-(4-methoxy-3-(methylsulfonamido)phenylao)-5-methylpyrimidin-4-ylthio)phenyl)acrylamide], the inhibition at 0.5 µM at Flt 1(h) is 79%; on KDR(h), 95%; at BTK(h), 55%; at Flt 4(h), 100%. The IC50 was below 1 µM with CTLL2, above 1 µM at human JAK1, below 5 µM with BaF3 wild-type cells and below 0.1 µM on human JAK3.

On to `O=C(/C=C/Cl)Nc1cccc(Sc2ccnc(Nc3ccc(N4CCOCC4)cc3)n2)c1` [Compound 340, (E)-3-chloro-N-(3-(2-(4-morpholinophenylao)pyrimidin-4-ylthio)phenyl)acrylamide], for which the inhibition at 0.5 µM on Flt 1(h) turned out to be 100%; at KDR(h), 94%; at BTK(h) it was 97%; at Flt 4(h) it was 95%. Also, the IC50 in the test with CTLL2 is below 5 µM; on human JAK1, above 1 µM; with BaF3 wild-type cells, below 5 µM; on human JAK3, below 0.1 µM.

Regarding `C=CC(=O)Nc1ccc(Sc2ccnc(Nc3ccc(S(N)(=O)=O)c(OC)c3)n2)cc1` [Compound 374, N-(4-(2-(3-methoxy-4-sulfamoylphenylao)pyrimidin-4-ylthio)phenyl)acrylamide], the inhibition at 0.5 µM at Flt 1(h) was 100%; at KDR(h), 96%; at BTK(h), 96%; at Flt 4(h), 100%. For the same molecule, the IC50 in the test on CTLL2 was below 20 µM; at human JAK1 it was above 1 µM; in the test on BaF3 wild-type cells, below 5 µM; at human JAK3, below 0.1 µM.
